What all share (conditions): CAMHB, incubation time 20 h
Compound in assay [1]: CC(C)(O/N=C(\C(=O)N[C@@H]1C(=O)N2C(C(=O)[O-])=C(C[n+]3ccccc3)CS[C@H]12)c1csc(N)n1)C(=O)O [ceftazidime]
Compound in assay [2]: CC(C)(O/N=C(\C(=O)N[C@@H]1C(=O)N2C(C(=O)[O-])=C(C[N+]3(CCNC(=O)c4ccc(O)c(O)c4Cl)CCCC3)CS[C@H]12)c1csc(N)n1)C(=O)O [cefiderocol]
Compound in assay [3]: C[C@@H](O)[C@H]1C(=O)N2C(C(=O)O)=C(S[C@@H]3CN[C@H](C(=O)N(C)C)C3)[C@H](C)[C@H]12 [meropenem]

Regarding B. multivorans VC15555, the MIC in assay [1] (avibactam 0 µg/mL) is 2 µg/mL; in assay [1] (avibactam 8 µg/mL), 2 µg/mL; in assay [2] (avibactam 0 µg/mL) it was more than 4 µg/mL; in assay [2] (avibactam 8 µg/mL) it was more than 4 µg/mL; in assay [3] (avibactam 0 µg/mL), 8 µg/mL; in assay [3] (avibactam 8 µg/mL), 4 µg/mL.
Consider B. multivorans LM013010, for which the MIC is 0.25 µg/mL in assay [2] (avibactam 0 µg/mL), 0.25 µg/mL in assay [2] (avibactam 8 µg/mL), 8 µg/mL in assay [3] (avibactam 0 µg/mL) and 1 µg/mL in assay [3] (avibactam 8 µg/mL).
As for B. cenocepacia G11815681, the minimum inhibitory concentration (MIC) in assay [1] (avibactam 0 µg/mL) is 16 µg/mL; in assay [1] (avibactam 8 µg/mL), 8 µg/mL; in assay [2] (avibactam 0 µg/mL), 2 µg/mL; in assay [2] (avibactam 8 µg/mL) it was 0.5 µg/mL; in assay [3] (avibactam 0 µg/mL) it was 32 µg/mL; in assay [3] (avibactam 8 µg/mL) it was 2 µg/mL.
Consider B. multivorans C5393, for which the minimum inhibitory concentration (MIC) came to 8 µg/mL in assay [1] (avibactam 0 µg/mL); 0.25 µg/mL in assay [2] (avibactam 0 µg/mL); 0.25 µg/mL in assay [2] (avibactam 8 µg/mL); 16 µg/mL in assay [3] (avibactam 0 µg/mL); 1 µg/mL in assay [3] (avibactam 8 µg/mL).
Regarding A. xylosoxidans ACH02, the minimum inhibitory concentration (MIC) in assay [1] (avibactam 0 µg/mL) stood at 2 µg/mL; in assay [1] (avibactam 8 µg/mL), 2 µg/mL; in assay [2] (avibactam 0 µg/mL), 0.25 µg/mL; in assay [2] (avibactam 8 µg/mL) it was 0.25 µg/mL; in assay [3] (avibactam 0 µg/mL) it was 1 µg/mL; in assay [3] (avibactam 8 µg/mL), 1 µg/mL.
For B. cenocepacia 130723, the MIC was 16 µg/mL in assay [1] (avibactam 0 µg/mL); 8 µg/mL in assay [1] (avibactam 8 µg/mL); 0.5 µg/mL in assay [2] (avibactam 0 µg/mL); 0.25 µg/mL in assay [2] (avibactam 8 µg/mL); 4 µg/mL in assay [3] (avibactam 0 µg/mL); 1 µg/mL in assay [3] (avibactam 8 µg/mL).
B. cenocepacia VC14543: the minimum inhibitory concentration (MIC) stood at 8 µg/mL in assay [1] (avibactam 0 µg/mL); 8 µg/mL in assay [1] (avibactam 8 µg/mL); 0.125 µg/mL in assay [2] (avibactam 0 µg/mL); 0.0625 µg/mL in assay [2] (avibactam 8 µg/mL); 16 µg/mL in assay [3] (avibactam 0 µg/mL); 4 µg/mL in assay [3] (avibactam 8 µg/mL).
Consider B. multivorans F9091687, for which the MIC in assay [1] (avibactam 0 µg/mL) amounted to 2 µg/mL; in assay [1] (avibactam 8 µg/mL), 2 µg/mL; in assay [2] (avibactam 0 µg/mL) it was 0.25 µg/mL; in assay [2] (avibactam 8 µg/mL), 0.25 µg/mL; in assay [3] (avibactam 0 µg/mL) it was 0.5 µg/mL; in assay [3] (avibactam 8 µg/mL) it was 0.5 µg/mL.
In the case of B. cenocepacia 110041, the minimal inhibitory concentration (MIC) in assay [2] (avibactam 0 µg/mL) turned out to be 0.0625 µg/mL; in assay [2] (avibactam 8 µg/mL), 0.0625 µg/mL; in assay [3] (avibactam 0 µg/mL) it was 32 µg/mL; in assay [3] (avibactam 8 µg/mL), 4 µg/mL.
For the test system S. maltophilia 04 T22674, the MIC was 2 µg/mL in assay [1] (avibactam 0 µg/mL); 2 µg/mL in assay [1] (avibactam 8 µg/mL); 0.5 µg/mL in assay [2] (avibactam 0 µg/mL); 0.5 µg/mL in assay [2] (avibactam 8 µg/mL); 16 µg/mL in assay [3] (avibactam 0 µg/mL); 16 µg/mL in assay [3] (avibactam 8 µg/mL).
Turning to A. xylosoxidans ACH03, the MIC is 1 µg/mL in assay [1] (avibactam 0 µg/mL); 1 µg/mL in assay [1] (avibactam 8 µg/mL); 0.125 µg/mL in assay [2] (avibactam 0 µg/mL); 0.125 µg/mL in assay [2] (avibactam 8 µg/mL); 0.25 µg/mL in assay [3] (avibactam 0 µg/mL); 0.25 µg/mL in assay [3] (avibactam 8 µg/mL).
On to B. dolosa AU2167, for which the minimal inhibitory concentration (MIC) in assay [1] (avibactam 0 µg/mL) is 64 µg/mL; in assay [2] (avibactam 0 µg/mL) it was more than 4 µg/mL; in assay [2] (avibactam 8 µg/mL) it was more than 4 µg/mL; in assay [3] (avibactam 0 µg/mL), 32 µg/mL; in assay [3] (avibactam 8 µg/mL), 1 µg/mL.
Consider B. contaminans 21NG595759, for which the MIC worked out at 16 µg/mL in assay [1] (avibactam 0 µg/mL); 8 µg/mL in assay [1] (avibactam 8 µg/mL); 1 µg/mL in assay [2] (avibactam 0 µg/mL); 2 µg/mL in assay [2] (avibactam 8 µg/mL); 32 µg/mL in assay [3] (avibactam 0 µg/mL); 8 µg/mL in assay [3] (avibactam 8 µg/mL).
As to B. multivorans 134955, the minimum inhibitory concentration (MIC) in assay [1] (avibactam 0 µg/mL) was determined as 8 µg/mL; in assay [1] (avibactam 8 µg/mL), 8 µg/mL; in assay [2] (avibactam 0 µg/mL), 0.125 µg/mL; in assay [2] (avibactam 8 µg/mL) it was 0.125 µg/mL; in assay [3] (avibactam 0 µg/mL), 8 µg/mL; in assay [3] (avibactam 8 µg/mL), 1 µg/mL.
For the test system B. dolosa LM018941, the MIC in assay [1] (avibactam 0 µg/mL) is 16 µg/mL; in assay [1] (avibactam 8 µg/mL) it was 2 µg/mL; in assay [2] (avibactam 0 µg/mL), more than 4 µg/mL; in assay [2] (avibactam 8 µg/mL), more than 4 µg/mL; in assay [3] (avibactam 0 µg/mL), 16 µg/mL; in assay [3] (avibactam 8 µg/mL), 0.5 µg/mL.
Consider B. cenocepacia K56-2, for which the MIC amounted to 32 µg/mL in assay [1] (avibactam 0 µg/mL); 0.125 µg/mL in assay [2] (avibactam 0 µg/mL); 0.125 µg/mL in assay [2] (avibactam 8 µg/mL); 16 µg/mL in assay [3] (avibactam 0 µg/mL); 2 µg/mL in assay [3] (avibactam 8 µg/mL).
For S. maltophilia 03 T2510, the minimal inhibitory concentration (MIC) was 32 µg/mL in assay [1] (avibactam 0 µg/mL); 32 µg/mL in assay [1] (avibactam 8 µg/mL); 1 µg/mL in assay [2] (avibactam 0 µg/mL); 1 µg/mL in assay [2] (avibactam 8 µg/mL); more than 64 µg/mL in assay [3] (avibactam 0 µg/mL); more than 64 µg/mL in assay [3] (avibactam 8 µg/mL).
As to B. multivorans VC15535, the MIC in assay [1] (avibactam 0 µg/mL) turned out to be 32 µg/mL; in assay [1] (avibactam 8 µg/mL), 16 µg/mL; in assay [2] (avibactam 0 µg/mL) it was 0.5 µg/mL; in assay [2] (avibactam 8 µg/mL), 0.5 µg/mL; in assay [3] (avibactam 0 µg/mL) it was 16 µg/mL; in assay [3] (avibactam 8 µg/mL), 8 µg/mL.
For the test system B. cenocepacia VC14761, the minimum inhibitory concentration (MIC) in assay [1] (avibactam 0 µg/mL) worked out at 2 µg/mL; in assay [1] (avibactam 8 µg/mL), 2 µg/mL; in assay [2] (avibactam 0 µg/mL) it was 0.125 µg/mL; in assay [2] (avibactam 8 µg/mL), 0.0625 µg/mL; in assay [3] (avibactam 0 µg/mL) it was 4 µg/mL; in assay [3] (avibactam 8 µg/mL), 1 µg/mL.
B. cenocepacia VC14488: the minimum inhibitory concentration (MIC) in assay [1] (avibactam 8 µg/mL) turned out to be 2 µg/mL; in assay [2] (avibactam 0 µg/mL), 0.25 µg/mL; in assay [2] (avibactam 8 µg/mL), 0.25 µg/mL; in assay [3] (avibactam 0 µg/mL), 4 µg/mL; in assay [3] (avibactam 8 µg/mL), 1 µg/mL.

Broadly, the MIC is the least concentration at which growth counts as inhibited.

Values taken from the supplement of paper PMC10412643.
